Experimental findings from publication PMC5503158 (Cancer research, 2017) are described below.

The target in this test is Bax (Homo sapiens, UniProt Q07812). Nature of the test: competition fluorescence polarization assay with fluorescent Bak BH3 peptide. It is filed as binding.

Structures are written as SMILES.

Bax, sequence (Q07812 whole entry): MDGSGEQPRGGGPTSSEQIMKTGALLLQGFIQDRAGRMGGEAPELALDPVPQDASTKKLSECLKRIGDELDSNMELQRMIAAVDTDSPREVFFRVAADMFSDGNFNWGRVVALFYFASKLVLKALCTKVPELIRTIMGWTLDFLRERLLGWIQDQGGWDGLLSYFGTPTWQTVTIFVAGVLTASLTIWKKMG

Consider `NCCOc1ccccc1C=C1c2ccccc2-c2ccc([N+](=O)[O-])cc21` [CYD-2-11], for which the Ki (in general, a measure of affinity in units of concentration, obtained from inhibition or displacement) came out at 34.1 ± 8.54 nM.
